Target: T1, BRM (Homo sapiens, UniProt P51531)
T1 construct: In-Cell Western Screen of BRM Degradation in SW1573 Cells; endogenous in cells; host or cells: SW1573
Assay: In-cell Western screen of BRM degradation in SW1573 cells (Dmax and DC50)
Assay type: cell-based
Conditions: BRM degradation, SW1573 cells, Table 2D; for DC50: read-out: *DC50; for Dmax: read-out: **Dmax (%) (% degraded)
Summary of the method: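 BRM levels were read by LI-COR in-cell Western after two-channel (800/680 nm) immunostaining of fixed, Triton-permeabilised SW1573 cells.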

T1 sequence (P51531 whole entry): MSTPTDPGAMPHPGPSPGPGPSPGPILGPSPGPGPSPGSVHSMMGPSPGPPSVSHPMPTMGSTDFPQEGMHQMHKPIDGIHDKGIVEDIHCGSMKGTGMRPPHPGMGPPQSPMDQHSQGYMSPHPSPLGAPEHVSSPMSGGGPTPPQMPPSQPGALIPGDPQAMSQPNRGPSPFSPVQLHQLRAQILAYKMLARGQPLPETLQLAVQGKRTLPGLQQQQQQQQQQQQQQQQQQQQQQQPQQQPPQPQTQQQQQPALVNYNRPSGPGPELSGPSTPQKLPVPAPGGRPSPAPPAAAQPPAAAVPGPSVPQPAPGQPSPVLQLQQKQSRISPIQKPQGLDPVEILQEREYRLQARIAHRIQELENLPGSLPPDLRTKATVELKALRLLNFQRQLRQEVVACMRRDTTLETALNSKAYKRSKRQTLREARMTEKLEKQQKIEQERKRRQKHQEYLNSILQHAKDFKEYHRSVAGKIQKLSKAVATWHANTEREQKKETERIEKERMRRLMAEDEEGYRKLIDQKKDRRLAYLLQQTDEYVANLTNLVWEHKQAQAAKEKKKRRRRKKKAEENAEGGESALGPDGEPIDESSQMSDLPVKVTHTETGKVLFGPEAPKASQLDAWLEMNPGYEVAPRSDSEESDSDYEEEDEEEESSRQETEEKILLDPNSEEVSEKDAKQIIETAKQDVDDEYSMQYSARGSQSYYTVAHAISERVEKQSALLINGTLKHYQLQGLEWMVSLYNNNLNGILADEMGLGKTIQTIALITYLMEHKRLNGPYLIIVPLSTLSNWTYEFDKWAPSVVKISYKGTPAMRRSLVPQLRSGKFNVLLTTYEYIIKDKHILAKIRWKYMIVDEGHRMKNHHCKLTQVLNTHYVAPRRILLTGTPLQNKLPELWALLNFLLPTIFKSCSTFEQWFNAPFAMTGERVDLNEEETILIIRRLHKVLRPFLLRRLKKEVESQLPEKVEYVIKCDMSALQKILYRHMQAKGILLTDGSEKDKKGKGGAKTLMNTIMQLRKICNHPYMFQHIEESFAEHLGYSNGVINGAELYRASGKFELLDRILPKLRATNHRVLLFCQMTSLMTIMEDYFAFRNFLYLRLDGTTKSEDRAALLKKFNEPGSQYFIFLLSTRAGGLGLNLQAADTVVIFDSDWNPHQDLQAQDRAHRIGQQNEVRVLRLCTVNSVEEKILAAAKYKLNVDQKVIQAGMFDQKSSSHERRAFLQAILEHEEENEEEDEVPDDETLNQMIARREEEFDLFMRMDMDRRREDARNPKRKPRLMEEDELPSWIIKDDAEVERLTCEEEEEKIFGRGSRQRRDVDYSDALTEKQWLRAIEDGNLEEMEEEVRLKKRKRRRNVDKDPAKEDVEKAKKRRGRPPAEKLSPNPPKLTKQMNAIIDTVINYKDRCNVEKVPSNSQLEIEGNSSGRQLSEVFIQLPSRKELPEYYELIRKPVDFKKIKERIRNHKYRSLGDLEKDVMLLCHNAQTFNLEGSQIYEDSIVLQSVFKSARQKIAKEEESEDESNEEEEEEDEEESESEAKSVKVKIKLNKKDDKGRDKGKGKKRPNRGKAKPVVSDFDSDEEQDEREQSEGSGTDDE

| SMILES | DC50 | Dmax |
| --- | --- | --- |
| Cc1cc([C@@H](C(=O)N2C[C@H](O)C[C@H]2C(=O)N[C@@H](C)c2ccc(-c3scnc3C)cc2)[C@H](C)COCCCCn2cc(-c3cc(-c4ccccc4O)nnc3N)cn2)on1 [compound 557, (2S,4R)-1-((2S,3S)-4-(4-(4-(3-amino-6-(2-hydroxyphenyl)pyridazin-4-yl)-1H-pyrazol-1-yl)butoxy)-3-methyl-2-(3-methylisoxazol-5-yl)butanoyl)-4-hydroxy-N-((S)-1-(4-(4-methylthiazol-5-yl)phenyl)ethyl) pyrrolidine-2-carboxamide] | > 30 nM | – |
| Cc1cc([C@H](C(=O)N2C[C@H](O)C[C@H]2C(=O)N[C@@H](C)c2ccc(-c3scnc3C)cc2)[C@H](C)COCCCCn2cc(-c3cc(-c4ccccc4O)nnc3N)cn2)on1 [compound 558, (2S,4R)-1-((2R,3S)-4-(4-(4-(3-amino-6-(2-hydroxyphenyl)pyridazin-4-yl)-1H-pyrazol-1-yl)butoxy)-3-methyl-2-(3-methylisoxazol-5-yl)butanoyl)-4-hydroxy-N-((S)-1-(4-(4-methylthiazol-5-yl)phenyl)ethyl) pyrrolidine-2-carboxamide] | > 30 nM | – |
| Cc1cc([C@@H](C(=O)N2C[C@H](O)C[C@H]2C(=O)N[C@@H](C)c2ccc(-c3scnc3C)cc2)[C@H](C)COCCCn2cc(-c3cc(-c4ccccc4O)nnc3N)cn2)on1 [compound 559, (2S,4R)-1-((2S,3S)-4-(3-(4-(3-amino-6-(2-hydroxyphenyl)pyridazin-4-yl)-1H-pyrazol-1-yl)propoxy)-3-methyl-2-(3-methylisoxazol-5-yl)butanoyl)-4-hydroxy-N-((S)-1-(4-(4-methylthiazol-5-yl)phenyl)ethyl)pyrrolidine-2-carboxamide] | > 30 nM | – |
| Cc1cc([C@H](C(=O)N2C[C@H](O)C[C@H]2C(=O)N[C@@H](C)c2ccc(-c3scnc3C)cc2)[C@H](C)COCCCn2cc(-c3cc(-c4ccccc4O)nnc3N)cn2)on1 [compound 560, (2S,4R)-1-((2R,3S)-4-(3-(4-(3-amino-6-(2-hydroxyphenyl)pyridazin-4-yl)-1H-pyrazol-1-yl)propoxy)-3-methyl-2-(3-methylisoxazol-5-yl)butanoyl)-4-hydroxy-N-((S)-1-(4-(4-methylthiazol-5-yl)phenyl)ethyl)pyrrolidine-2-carboxamide] | > 30 nM | – |
| COc1nc(-c2scnc2C)c(F)cc1[C@H](C)NC(=O)[C@@H]1C[C@@H](O)CN1C(=O)[C@H](c1cc(OCCN2CCC(O[C@H]3C[C@H](Oc4cc(N5C6CCC5CN(c5cc(-c7ccccc7O)nnc5N)C6)ccn4)C3)CC2)no1)C(C)C [compound 561, (2S,4R)-1-((2S)-2-(3-(2-(4-((1r,3S)-3-((4-(3-(3-amino-6-(2-hydroxyphenyl)pyridazin-4-yl)-3,8-diazabicyclo[3.2.1]octan-8-yl)pyridin-2-yl)oxy)cyclobutoxy)piperidin-1-yl)ethoxy)isoxazol-5-yl)-3-methylbutanoyl)-N-((S)-1-(5-fluoro-2-methoxy-6-(4-methylthiazol-5-yl)pyridin-3-yl)ethyl)-4-hydroxypyrrolidine-2-carboxamide] | > 30 nM | – |
| COc1nc(-c2scnc2C)c(F)cc1[C@H](C)NC(=O)[C@@H]1C[C@@H](O)CN1C(=O)[C@@H](c1cc(OCCN2CCC(O[C@H]3C[C@H](Oc4cc(N5C6CCC5CN(c5cc(-c7ccccc7O)nnc5N)C6)ccn4)C3)CC2)no1)C(C)C [compound 562, (2S,4R)-1-((2R)-2-(3-(2-(4-((1r,3R)-3-((4-(3-(3-amino-6-(2-hydroxyphenyl)pyridazin-4-yl)-3,8-diazabicyclo[3.2.1]octan-8-yl)pyridin-2-yl)oxy)cyclobutoxy)piperidin-1-yl)ethoxy)isoxazol-5-yl)-3-methylbutanoyl)-N-((S)-1-(5-fluoro-2-methoxy-6-(4-methylthiazol-5-yl)pyridin-3-yl)ethyl)-4-hydroxypyrrolidine-2-carboxamide] | < 2.5 nM | > 75% |
| COc1nc(-c2scnc2C)c(F)cc1[C@@H](C)NC(=O)[C@@H]1C[C@@H](O)CN1C(=O)[C@H](c1cc(OCCN2CCC(O[C@H]3C[C@H](Oc4cc(N5C6CCC5CN(c5cc(-c7ccccc7O)nnc5N)C6)ccn4)C3)CC2)no1)C(C)C [compound 563, (2S,4R)-1-((2S)-2-(3-(2-(4-((1r,3S)-3-((4-(3-(3-amino-6-(2-hydroxyphenyl)pyridazin-4-yl)-3,8-diazabicyclo[3.2.1]octan-8-yl)pyridin-2-yl)oxy)cyclobutoxy)piperidin-1-yl)ethoxy)isoxazol-5-yl)-3-methylbutanoyl)-N-((R)-1-(5-fluoro-2-methoxy-6-(4-methylthiazol-5-yl)pyridin-3-yl)ethyl)-4-hydroxypyrrolidine-2-carboxamide] | > 30 nM | – |
| COc1nc(-c2scnc2C)c(F)cc1[C@@H](C)NC(=O)[C@@H]1C[C@@H](O)CN1C(=O)[C@@H](c1cc(OCCN2CCC(O[C@H]3C[C@H](Oc4cc(N5C6CCC5CN(c5cc(-c7ccccc7O)nnc5N)C6)ccn4)C3)CC2)no1)C(C)C [compound 564, (2S,4R)-1-((2R)-2-(3-(2-(4-((1r,3R)-3-((4-(3-(3-amino-6-(2-hydroxyphenyl)pyridazin-4-yl)-3,8-diazabicyclo[3.2.1]octan-8-yl)pyridin-2-yl)oxy)cyclobutoxy)piperidin-1-yl)ethoxy)isoxazol-5-yl)-3-methylbutanoyl)-N-((R)-1-(5-fluoro-2-methoxy-6-(4-methylthiazol-5-yl)pyridin-3-yl)ethyl)-4-hydroxypyrrolidine-2-carboxamide] | > 30 nM | – |
| CNC(=O)CCC[C@H](NC(=O)[C@@H]1C[C@@H](O)CN1C(=O)[C@H](c1cc(OCCN2CCC(O[C@H]3C[C@H](Oc4cc(N5C6CCC5CN(c5cc(-c7ccccc7O)nnc5N)C6)ccn4)C3)CC2)no1)C(C)C)c1ccc(-c2scnc2C)cc1 [compound 569, (2S,4R)-1-((2S)-2-(3-(2-(4-((1r,3S)-3-((4-(3-(3-amino-6-(2-hydroxyphenyl)pyridazin-4-yl)-3,8-diazabicyclo[3.2.1]octan-8-yl)pyridin-2-yl)oxy)cyclobutoxy)piperidin-1-yl)ethoxy)isoxazol-5-yl)-3-methylbutanoyl)-4-hydroxy-N-((S)-5-(methylamino)-1-(4-(4-methylthiazol-5-yl)phenyl)-5-oxopentyl)pyrrolidine-2-carboxamide] | > 30 nM | – |
| CNC(=O)CCC[C@H](NC(=O)[C@@H]1C[C@@H](O)CN1C(=O)[C@@H](c1cc(OCCN2CCC(O[C@H]3C[C@H](Oc4cc(N5C6CCC5CN(c5cc(-c7ccccc7O)nnc5N)C6)ccn4)C3)CC2)no1)C(C)C)c1ccc(-c2scnc2C)cc1 [compound 570, (2S,4R)-1-((2R)-2-(3-(2-(4-((1r,3R)-3-((4-(3-(3-amino-6-(2-hydroxyphenyl)pyridazin-4-yl)-3,8-diazabicyclo[3.2.1]octan-8-yl)pyridin-2-yl)oxy)cyclobutoxy)piperidin-1-yl)ethoxy)isoxazol-5-yl)-3-methylbutanoyl)-4-hydroxy-N-((S)-5-(methylamino)-1-(4-(4-methylthiazol-5-yl)phenyl)-5-oxopentyl)pyrrolidine-2-carboxamide] | < 2.5 nM | > 75% |
| Cc1ncsc1-c1ccc([C@@H](NC(=O)[C@@H]2C[C@@H](O)CN2C(=O)[C@H](c2cc(N3CCC(CN4CCC(O[C@H]5C[C@H](Oc6cc(N7C8CCC7CN(c7cc(-c9ccccc9O)nnc7N)C8)ccn6)C5)CC4)CC3)no2)C(C)C)C(F)F)cc1 [compound 571, (2S,4R)-1-((2S)-2-(3-(4-((4-((1r,3r)-3-((4-(3-(3-amino-6-(2-hydroxyphenyl)pyridazin-4-yl)-3,8-diazabicyclo[3.2.1]octan-8-yl)pyridin-2-yl)oxy)cyclobutoxy)piperidin-1-yl)methyl)piperidin-1-yl)isoxazol-5-yl)-3-methylbutanoyl)-N-((R)-2,2-difluoro-1-(4-(4-methylthiazol-5-yl)phenyl)ethyl)-4-hydroxypyrrolidine-2-carboxamide] | > 30 nM | – |
| Cc1ncsc1-c1ccc([C@@H](NC(=O)[C@@H]2C[C@@H](O)CN2C(=O)[C@@H](c2cc(N3CCC(CN4CCC(O[C@H]5C[C@H](Oc6cc(N7C8CCC7CN(c7cc(-c9ccccc9O)nnc7N)C8)ccn6)C5)CC4)CC3)no2)C(C)C)C(F)F)cc1 [compound 572, (2S,4R)-1-((2R)-2-(3-(4-((4-((1r,3r)-3-((4-(3-(3-amino-6-(2-hydroxyphenyl)pyridazin-4-yl)-3,8-diazabicyclo[3.2.1]octan-8-yl)pyridin-2-yl)oxy)cyclobutoxy)piperidin-1-yl)methyl)piperidin-1-yl)isoxazol-5-yl)-3-methylbutanoyl)-N-((R)-2,2-difluoro-1-(4-(4-methylthiazol-5-yl)phenyl)ethyl)-4-hydroxypyrrolidine-2-carboxamide] | < 2.5 nM | > 75% |
| Cc1nccn1-c1ccc([C@H](C)NC(=O)[C@@H]2C[C@@H](O)CN2C(=O)[C@H](c2cc(N3CCN(C[C@H]4C[C@H](Oc5cc(N6C7CCC6CN(c6cc(-c8ccccc8O)nnc6N)C7)ccn5)C4)CC3)no2)C(C)C)cc1 [compound 575, (2S,4R)-1-((2S)-2-(3-(4-(((1r,3S)-3-((4-(3-(3-amino-6-(2-hydroxyphenyl)pyridazin-4-yl)-3,8-diazabicyclo[3.2.1]octan-8-yl)pyridin-2-yl)oxy)cyclobutyl)methyl)piperazin-1-yl)isoxazol-5-yl)-3-methylbutanoyl)-4-hydroxy-N-((S)-1-(4-(2-methyl-1H-imidazol-1-yl)phenyl)ethyl)pyrrolidine-2-carboxamide] | 10 to 30 nM | 50 to 75% |
